Laboratory results as given in patent US20130085064A1, “PESTICIDAL MIXTURES CONTAINING ISOXAZOLINE DERIVATIVES AND INSECTICIDE OR NEMATOICIDAL BIOLOGICAL AGENT” (priority 2010, published 2013).
“And” between values parts separate entries of the source, which are not always exact repeats. Equal entries are not always repeated.

Legend:
Assay type in all cases: in vivo
[1] = system: Heliothis virescens (tobacco budworm); assay: Heliothis virescens ovo-larvicide, feeding/contact, eggs on filter paper in Petri dishes; settings: for activity on eggs: egg mortality, 7 days incubation; for AVERAGE DEAD IN % (LARVAE): single compound, 7 days
Text: (§1) The action to be expected E for a given active ingredient combination obeys the so-called COLBY formula and can be calculated as follows (COLBY, S.R. “Calculating synergistic and antagonistic responses of herbicide combination”. Weeds, Vol. 15, pages 20-22; 1967):
(§2) ppm=milligrams of active ingredient (=a.i.) per liter of spray mixture X=% action by active ingredient A) using p ppm of active ingredient Y=% action by active ingredient B) using q ppm of active ingredient.
(§3) According to COLBY, the expected (additive) action of active ingredients A)+B) using p+q ppm of active ingredient is
(§4) If the action actually observed (O) is greater than the expected action (E), then the action of the combination is super-additive, i.e. there is a synergistic effect. In mathematical terms the synergism factor SF corresponds to O/E. In the agricultural practice an SF of ≧1.2 indicates significant improvement over the purely complementary addition of activities (expected activity), while an SF of ≦0.9 in the practical application routine signals a loss of activity compared to the expected activity.
Heliothis Virescens (Tobacco Budworm):
(Ovo-Larvicide, Feeding/Contact)
30-35 fresh eggs (0-24 h old), deposited on filter paper, are placed in Petri dishes on top of a layer of artificial diet and 0.8 ml of diluted test solutions are pipetted onto them. After an incubation period of 7 days, samples are checked for egg and larval mortality. 3 replicates per treatment were evaluated.

[2] = system: Tetranychus urticae (two spotted spider mite); assay: Tetranychus urticae contact/feeding activity on bean plants, adult mortality
Text: as §1, §2, §3, §4
Tetranychus Urticae (Two Spotted Spider Mite)
(Contact/Feeding Activity)
Bean plants are infested with mite populations of mixed ages. 1 day after infestation, plants are treated in a spray chamber with diluted test solutions. 1 and 8 days later, samples are checked for adult mortality. 2 replicates per treatment were evaluated.

[3] = system: Tetranychus urticae (two-spotted spider mite); assay: Tetranychus urticae bean leaf discs in 24-well microtiter plates, mixed population mortality; settings: 8 days
Text: as §1, §2, §3, §4
Tetranychus Urticae (Two-Spotted Spider Mite)
Bean leaf discs on agar in 24-well microtiter plates are sprayed with test solutions (DMSO). After drying, the leaf discs are infested with mite populations of mixed ages. 8 days later, discs are checked for mixed population mortality.

[4] = system: Spodoptera littoralis (Egyptian cotton leaf worm); assay: Spodoptera littoralis larvicide L1, feeding/contact, cotton leaf discs; settings: single compound
Text: as §1, §2, §3, §4
Spodoptera Littoralis (Egyptian Cotton Leaf Worm)
(Larvicide L1, Feeding/Contact)
Cotton leaf discs are placed on agar in Petri dishes and sprayed with test solutions in an application chamber. After drying, the leaf discs are infested with 10 L1 larvae. The samples are checked for mortality 5 days after treatment. 3 replicates per treatment were evaluated. (1 PPM=1 mg l^−1)

[5] = system: Heliothis virescens (tobacco budworm); assay: Heliothis virescens eggs in 24-well microtiter plate on artificial diet, larval mortality
Text: as §1, §2, §3, §4
Heliothis Virescens (Tobacco Budworm)
Eggs (0-24 h old) are placed in 24-well microtiter plate on artificial diet and treated with test solutions (DMSO) by pipetting. After an incubation period of 4 days, samples are checked for larval mortality.

abamectin
activity on eggs [1]: inactive | AVERAGE DEAD IN % (LARVAE) ([1]; 0.025 ppm AI): 3% | AVERAGE DEAD IN % (LARVAE) ([1]; 0.05 ppm AI): 37% | AVERAGE DEAD IN % (LARVAE) ([1]; 0.1 ppm AI): 53% | AVERAGE DEAD IN % AFTER 8 DAYS ([2]; 0.0015 ppm alone): 25% | AVERAGE DEAD IN % AFTER 8 DAYS ([2]; 0.003 ppm alone): 20% | AVERAGE DEAD IN % AFTER 8 DAYS ([2]; 0.006 ppm alone): 25% | AVERAGE DEAD IN % AFTER 1 DAY ([2]; Abamectin alone 0.0015 ppm AI): 0% | AVERAGE DEAD IN % AFTER 1 DAY ([2]; Abamectin alone 0.003 ppm AI): 0% | AVERAGE DEAD IN % AFTER 1 DAY ([2]; Abamectin alone 0.006 ppm AI): 0% | AVERAGE DEAD IN % ([3]; 0.0002 ppm alone): 0% | AVERAGE DEAD IN % ([3]; 0.0004 ppm alone): 0% | AVERAGE DEAD IN % ([3]; 0.0008 ppm alone): 0% | AVERAGE DEAD IN % ([3]; 0.0015 ppm alone): 0% | AVERAGE DEAD IN % ([3]; 0.003 ppm alone): 0% | AVERAGE DEAD IN % ([3]; 0.006 ppm alone): 0% | AVERAGE DEAD IN % ([3]; 0.0125 ppm alone): 0% | AVERAGE DEAD IN % ([3]; 0.025 ppm alone): 0% | AVERAGE DEAD IN % ([3]; 0.05 ppm alone): 85% | AVERAGE DEAD IN % ([3]; 0.1 ppm alone): 85% | AVERAGE DEAD IN % ([3]; Abamectin alone, 0.0002 ppm, Table 120): 0% | AVERAGE DEAD IN % ([3]; Abamectin alone, 0.0004 ppm, Table 120): 0% | AVERAGE DEAD IN % ([3]; Abamectin alone, 0.0008 ppm, Table 120): 0% | AVERAGE DEAD IN % ([3]; Abamectin alone, 0.0015 ppm, Table 120): 0% | AVERAGE DEAD IN % ([3]; Abamectin alone, 0.003 ppm, Table 120): 0% | AVERAGE DEAD IN % ([3]; Abamectin alone, 0.006 ppm, Table 120): 0% | AVERAGE DEAD IN % ([3]; Abamectin alone, 0.0125 ppm, Table 120): 0% | AVERAGE DEAD IN % ([3]; Abamectin alone, 0.025 ppm, Table 120): 0% | AVERAGE DEAD IN % ([3]; Abamectin alone, 0.05 ppm, Table 120): 70% | AVERAGE DEAD IN % ([3]; Abamectin alone, 0.1 ppm, Table 120): 80% | AVERAGE DEAD IN % AFTER 5 DAYS ([4]; 0.4 PPM AI): 10% and 7% | AVERAGE DEAD IN % AFTER 5 DAYS ([4]; 0.8 PPM AI): 13% and 10% | AVERAGE DEAD IN % AFTER 5 DAYS ([4]; 1.6 PPM AI): 40% and 20% | AVERAGE DEAD IN % ([5]; single compound at 0.2 ppm AI): 0% | AVERAGE DEAD IN % ([5]; single compound at 0.4 ppm AI): 45% | AVERAGE DEAD IN % ([5]; single compound at 0.8 ppm AI): 68% | AVERAGE DEAD IN % ([5]; single compound at 1.6 ppm AI): 78% | AVERAGE DEAD IN % ([5]; single compound at 3.2 ppm AI): 100% | AVERAGE DEAD IN % ([5]; single compound at 6.4 ppm AI): 100%

emamectin benzoate
activity on eggs [1]: inactive | AVERAGE DEAD IN % (LARVAE) ([1]; 0.0015 ppm AI): 5% | AVERAGE DEAD IN % (LARVAE) ([1]; 0.003 ppm AI): 5% | AVERAGE DEAD IN % (LARVAE) ([1]; 0.006 ppm AI): 10% | AVERAGE DEAD IN % AFTER 8 DAYS ([2]; 0.0125 ppm alone): 5% | AVERAGE DEAD IN % AFTER 8 DAYS ([2]; 0.025 ppm alone): 23% | AVERAGE DEAD IN % AFTER 8 DAYS ([2]; 0.05 ppm alone): 38% | AVERAGE DEAD IN % AFTER 1 DAY ([2]; Emamectin benzoate alone 0.0125 ppm AI): 0% | AVERAGE DEAD IN % AFTER 1 DAY ([2]; Emamectin benzoate alone 0.025 ppm AI): 8% | AVERAGE DEAD IN % AFTER 1 DAY ([2]; Emamectin benzoate alone 0.05 ppm AI): 0% | AVERAGE DEAD IN % AFTER 5 DAYS ([4]; 0.003125 PPM AI): 20% | AVERAGE DEAD IN % AFTER 5 DAYS ([4]; 0.00625 PPM AI): 23% | AVERAGE DEAD IN % AFTER 5 DAYS ([4]; 0.0125 PPM AI): 30% and 27% | AVERAGE DEAD IN % ([5]; single compound at 0.00075 ppm AI): 0% | AVERAGE DEAD IN % ([5]; single compound at 0.0015 ppm AI): 0% | AVERAGE DEAD IN % ([5]; single compound at 0.003 ppm AI): 0% | AVERAGE DEAD IN % ([5]; single compound at 0.006 ppm AI): 0% | AVERAGE DEAD IN % ([5]; single compound at 0.012 ppm AI): 55% | AVERAGE DEAD IN % ([5]; single compound at 0.024 ppm AI): 93%
